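Grown in 96-well plates, cells were treated for 48 hours with each compound at five concentrations. Insufficient inhibition: endpoint recorded as highest concentration tested. GI50 = concentration required for 50% inhibition of growth.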 Calls of active or inactive are those of the source. No stated cut-off is given here; in the data, active = GI50 up to about 1.1 µM and inactive = higher.
Assays:
Assay in all cases: NCI-60 cell line screen, 48 h
[1] = system: A549
[2] = system: CCRF-CEM
[3] = system: COLO 205
[4] = system: HOP-62
[5] = system: IGROV-1
[6] = system: K562
[7] = system: MCF7
[8] = system: MOLT-4
[9] = system: NCI-H522
[10] = system: OVCAR-4
[11] = system: SF-268
[12] = system: SF-295
[13] = system: SK-MEL-2
[14] = system: SK-MEL-5
[15] = system: SN12C
[16] = system: UACC-62
[17] = system: UO-31
[18] = system: HL-60
[19] = system: UACC-257
[20] = system: HCC 2998

Structure (SMILES)	GI50 [1]	GI50 [2]	GI50 [3]	GI50 [4]	GI50 [5]	GI50 [6]	GI50 [7]	GI50 [8]	GI50 [9]	GI50 [10]	GI50 [11]	GI50 [12]	GI50 [13]	GI50 [14]	GI50 [15]	GI50 [16]	GI50 [17]	GI50 [18]	GI50 [19]	GI50 [20]
CCC(C)C(Nc1c2ccccc2nc2c(C(=O)NCCN(C)C)cccc12)C(=O)O (stereo not drawn)	12.3 µM (inactive)	24.3 µM (inactive)	6.15 µM (inactive)	13 µM (inactive)	14.7 µM (inactive)	21.6 µM (inactive)	5.86 µM (inactive)	7.59 µM (inactive)	12.7 µM (inactive)	5.83 µM (inactive)	13.6 µM (inactive)	12.3 µM (inactive)	19.4 µM (inactive)	15.7 µM (inactive)	13.6 µM (inactive)	15.9 µM (inactive)	8.83 µM (inactive)	–	–	–
Cc1csc2c(=O)n(COCc3ccccc3)c(=O)[nH]c12	> 100 µM (inactive)	> 100 µM (inactive)	> 100 µM (inactive)	59.8 µM (inactive)	> 100 µM (inactive)	> 100 µM (inactive)	95.9 µM (inactive)	> 100 µM (inactive)	94.8 µM (inactive)	> 100 µM (inactive)	> 100 µM (inactive)	> 100 µM (inactive)	–	91.2 µM (inactive)	> 100 µM (inactive)	–	89.5 µM (inactive)	> 100 µM (inactive)	> 100 µM (inactive)	–
C/C(=C\CO)CC/C=C(\C)CNc1ccccc1	50.8 µM (inactive)	–	41.2 µM (inactive)	> 100 µM (inactive)	> 100 µM (inactive)	28.6 µM (inactive)	78.7 µM (inactive)	13 µM (inactive)	23.2 µM (inactive)	–	73.1 µM (inactive)	38.5 µM (inactive)	–	16 µM (inactive)	57.5 µM (inactive)	36.1 µM (inactive)	38.1 µM (inactive)	30.1 µM (inactive)	27.3 µM (inactive)	–
CC(C)(C)[Si](C)(C)OCC1OC(n2ccc(N)nc2=O)C(O[Si](C)(C)C(C)(C)C)C1O[Si](C)(C)C(C)(C)C (stereo not drawn)	3.44 µM (inactive)	–	3.09 µM (inactive)	2.06 µM (inactive)	2.04 µM (inactive)	–	2.14 µM (inactive)	1.47 µM (inactive)	1.83 µM (inactive)	0.0356 µM (active)	2.56 µM (inactive)	1.74 µM (inactive)	2.07 µM (inactive)	2.01 µM (inactive)	3.65 µM (inactive)	1.94 µM (inactive)	1.71 µM (inactive)	–	3.33 µM (inactive)	–
CCCCCCCCCCCCCCCCOC[C@@H](COC(c1ccccc1)(c1ccccc1)c1ccccc1)O[PH](=S)OC (stereo partly drawn)	5.61 µM (inactive)	11.7 µM (inactive)	17.9 µM (inactive)	–	13.7 µM (inactive)	16.4 µM (inactive)	7.43 µM (inactive)	20.4 µM (inactive)	10.2 µM (inactive)	9.35 µM (inactive)	9.25 µM (inactive)	1.41 µM (inactive)	11.1 µM (inactive)	4.81 µM (inactive)	5.32 µM (inactive)	3.81 µM (inactive)	16.4 µM (inactive)	14.8 µM (inactive)	11.6 µM (inactive)	–
CC(=O)OCC1OC(OC2CC3C(C)(C)C(OC(C)=O)CC[C@]3(C)C3CCC45CC4(CC[C@H]5C(C)CC(O)C4OC4(C)C)[C@]23C)C(O)C(O)C1O (stereo partly drawn)	2.09 µM (inactive)	1.04 µM (active)	1.01 µM (active)	5.56 µM (inactive)	0.0715 µM (active)	1.13 µM (inactive)	–	0.189 µM (active)	1.59 µM (inactive)	1.48 µM (inactive)	2.44 µM (inactive)	1.69 µM (inactive)	1.84 µM (inactive)	2.69 µM (inactive)	2.29 µM (inactive)	1.99 µM (inactive)	3.68 µM (inactive)	1.18 µM (inactive)	1.98 µM (inactive)	1.37 µM (inactive)

Source: ChEMBL document CHEMBL1201862, “PubChem BioAssay data set” (2004)
